# Measured values as given in patent US20230270772A1, “USE OF 5'-METHYLTHIOADENOSINE IN PREPARATION OF OBESITY-SUPPRESSING DRUGS OR HEALTH CARE PRODUCTS” (Zhejiang Chinese Medical University, priority 2022, published 2023).
# Experiments:
# [1] = system: high-fat diet-induced obesity in C57BL/6 mice; experiment: Suppression of high-fat diet-induced obesity, gavage for 11 weeks; assay type: in vivo; settings: 50 and 100 mg/kg/day by gavage
# Description: (§1) Eight-week-old C57BL/6 mice were divided into three groups (a control group, a model group, and a drug-treated group). The mice of control group were fed with a low-fat diet, the mice of model group were fed with a high-fat diet, and the mice of drug-treated group were fed with high-fat diet+5′-methylthioadenosine (50 and 100 mg/kg/day) by gavage for 11 weeks, during which the body weight of the mice was recorded, and OGTT and ITT thereof were conducted.
# [2] = system: HepG2 hepatoma cells; experiment: Suppression of uric acid-induced lipogenesis in HepG2 hepatoma cells (oil red staining); assay type: cell-based; settings: uric acid 120 μg/mL + 0.05, 0.1, 0.5, 1.0 and 5.0 μg/mL for 24 h, FIG. 3
# Description: HepG2 hepatoma cells were induced to synthesize fat by uric acid (120 μg/mL). After 24 h, the cells were divided into two groups for testing. The cells of model group continued to be induced with uric acid (120 μg/mL) for 24 h.
# [3] = system: high-fat diet-induced obesity in C57/BL mice; experiment: Comparison of MTA and adenosine in suppressing high-fat diet-induced obesity; assay type: in vivo; settings: 8-week-old C57BL/6 mice, tube-feeding 100 mg/kg/day, FIG. 2A-2D
# Source text: Experimental animals: 8-week-old C57BL/6 mice; Diets and drugs: low-fat diet (10% kcal as fat, product #D12450J, Research Diets), high-fat diet (60% kcal as fat, product #D12492, Research Diets), MTA, and adenosine.
# [4] = system: high-fat diet-induced obesity in C57BL/6 mice; experiment: Suppression of high-fat diet-induced obesity, gavage for 9 weeks; assay type: in vivo; settings: 100 mg/kg/day by gavage
# Description: as §1, with “group) (FIG. 4A).” for “group).”, “diet, and” for “diet,”, “diet ad libitum. The” for “diet, and the”, “(100” for “(50 and 100”, “9” for “11”
SMILES,"high-fat diet-induced obesity (body weight) ([1]; FIG. 5A, 5B)","oral glucose tolerance and insulin tolerance (OGTT, ITT) ([1]; FIG. 5G-5J)","liver lipogenesis and gains of subcutaneous and visceral fats (perirenal, testicular) ([1]; after sacrifice, FIG. 5C-5F)","uric acid-induced lipogenesis (amount of synthetic fat, oil red staining) [2]","obesity-suppressing effect (body weight, liver weight, subcutaneous and visceral fat weight) [3]",high-fat diet-induced obesity (body weight) ([4]; FIG. 4B),"oral glucose tolerance and insulin tolerance (OGTT, ITT) ([4]; FIG. 4H, 4I)","liver lipogenesis and gains of subcutaneous and visceral fats ([4]; after sacrifice, FIG. 4C-4G)"
"CSC[C@H]1O[C@@H](n2cnc3c(N)ncnc32)[C@H](O)[C@@H]1O [5′-methylthioadenosine, 5′-Methylthioadenosine]","significantly suppressing high-fat diet-induced obesity, with a concentration gradient effect",improving oral glucose tolerance and insulin tolerance in mice,"suppressing the liver lipogenesis and the gains of subcutaneous fats and visceral fats, with a concentration gradient effect",significantly inhibiting uric acid-induced lipogenesis in HepG2 cells with a concentration gradient effect,significantly better than that of adenosine,significantly suppressing high-fat diet-induced obesity,improving oral glucose tolerance and insulin tolerance in mice,suppressing the liver lipogenesis and the gains of subcutaneous fats and visceral fats
Nc1ncnc2c1ncn2[C@@H]1O[C@H](CO)[C@@H](O)[C@H]1O [adenosine],–,–,–,–,shown to inhibit the body weight and liver weight gains and fat accumulation in mice,–,–,–
